Columns and labels:
[1] = test system: patients with moderate, uncomplicated hypertension; conditions: difference between treated and untreated patients, mean ± standard error; end of treatment period, 1-2 hours after last dose, seated; ketanserin 40 mg b.i.d., captopril 50 mg b.i.d.
Protocol: The effect of a combination of the compound ketanserin (I) and an ACE inhibitor, captopril, on the lowering of blood pressure was investigated in a double-blind randomized cross-over study according to a latin square design.
Adult (≧18 years) patients with moderate, uncomplicated hypertension (105 mmHg ≦ DBP ≦ 115 mmHg at the end of a 1 month placebo wash-out period) were randomly assigned to: - placebo (1 tab q.i.d.); - placebo (1 tab b.i.d.) + ketanserin (1 tab 40 mg b.i.d.); - placebo (1 tab b.i.d.) + captopril (1 tab 50 mg b.i.d.); - ketanserin (1 tab 40 mg b.i.d.) + captopril (1 tab 50 mg b.i.d.).
At the end of each treatment period (1-2 hours after the last dose), blood pressure (by a mercury sphygmomanometer) and heart rate (by the palpatory method over a 30˝ period) of patients seated for 10′ were recorded by the same investigator during 3 measurements at 2′ intervals.

[2] = test system: patients with mild to moderate, uncomplicated, essential hypertension; format: in vivo; conditions: absolute value, mean ± standard error; end of 3 month monotherapy (ketanserin 2 weeks 20 mg b.i.d. then 10 weeks 40 mg b.i.d., 9 pts; enalapril 12 weeks 10 mg b.i.d., 7 pts)
Protocol: The effect of a combination of the compound ketanserin (I) and enalapril on the lowering of blood pressure was investigated in a randomized double-blind parallel group study. Elderly (≧ 50 years) patients with mild to moderate, uncomplicated, essential hypertension (95 mm Hg ≦ DBP ≦ 105 mm Hg at the end of a 3 month period on double blind monotherapy) received ketanserin (1 tab 40 mg b.i.d.) + enalapril (1 tab 10 mg b.i.d.). […] Bloodpressure (SBP, DBP) and heart rate (HR) (mean values ± standard error) are in mm Hg and b.p.m.

C[C@H](CS)C(=O)N1CCC[C@H]1C(=O)O [Captopril, captopril]
difference of diastolic blood pressure (DBP) [1]: -8.75±1.3 mmHg | difference of systolic blood pressure (SBP) [1]: -8.75±1.96 mmHg

CCOC(=O)[C@H](CCc1ccccc1)N[C@@H](C)C(=O)N1CCC[C@H]1C(=O)O [Enalapril, enalapril]
DBP, End Monotherapy Phase [2]: 101.42±10.07 mm Hg | SBP, End Monotherapy Phase [2]: 160.0±5.77 mm Hg

O=C(c1ccc(F)cc1)C1CCN(CCn2c(=O)[nH]c3ccccc3c2=O)CC1 [Ketanserin, 3-[2-[4-(4-fluorobenzoyl)-1-piperidinyl]ethyl]-2,4(1H,3H)-quinazolinedione]
difference of diastolic blood pressure (DBP) [1]: -7.92±1.3 mmHg | difference of systolic blood pressure (SBP) [1]: -8.33±2.33 mmHg | DBP, End Monotherapy Phase [2]: 102.22±5.65 mm Hg | SBP, End Monotherapy Phase [2]: 148.88±13.64 mm Hg
